# Assay results taken from PMC6775102, “Lifespan-increasing drug nordihydroguaiaretic acid inhibits p300 and activates autophagy” (NPJ Aging and Mechanisms of Disease, 2019).
# Molecular target: T1, p300 (Homo sapiens, UniProt Q09472)
# T1 construct: gene EP300; p300 BHC (bromodomain, catalytic acetyltransferase domain, and C/H3 domain, amino acids 965–1810); also p300 HAT (amino acids 1284–1673)
# T1 sequence (Q09472 965-1810): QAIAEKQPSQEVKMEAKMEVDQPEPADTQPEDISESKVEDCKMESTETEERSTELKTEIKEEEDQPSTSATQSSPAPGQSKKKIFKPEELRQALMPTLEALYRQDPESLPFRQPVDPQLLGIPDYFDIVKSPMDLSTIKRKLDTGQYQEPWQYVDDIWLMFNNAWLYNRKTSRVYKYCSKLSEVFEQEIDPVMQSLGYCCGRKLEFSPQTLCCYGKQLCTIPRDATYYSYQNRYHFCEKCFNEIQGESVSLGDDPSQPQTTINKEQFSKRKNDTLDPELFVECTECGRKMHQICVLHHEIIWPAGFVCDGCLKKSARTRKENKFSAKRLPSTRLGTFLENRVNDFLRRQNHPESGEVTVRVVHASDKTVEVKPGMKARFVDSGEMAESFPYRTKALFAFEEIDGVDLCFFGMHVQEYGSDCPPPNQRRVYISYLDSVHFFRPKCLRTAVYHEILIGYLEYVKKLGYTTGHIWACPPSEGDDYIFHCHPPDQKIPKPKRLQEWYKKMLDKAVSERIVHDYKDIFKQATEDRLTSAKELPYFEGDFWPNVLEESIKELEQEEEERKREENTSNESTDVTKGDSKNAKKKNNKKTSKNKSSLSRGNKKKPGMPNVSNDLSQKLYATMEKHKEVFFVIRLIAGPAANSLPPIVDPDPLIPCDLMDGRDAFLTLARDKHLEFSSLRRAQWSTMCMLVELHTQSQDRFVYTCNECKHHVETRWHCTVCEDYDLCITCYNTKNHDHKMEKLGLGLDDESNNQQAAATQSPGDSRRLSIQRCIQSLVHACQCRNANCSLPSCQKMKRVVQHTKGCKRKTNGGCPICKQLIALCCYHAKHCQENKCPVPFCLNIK
# Experiment: fluorimetric acetyltransferase assay with recombinant p300 BHC and H3 peptide; second assay with p300 HAT; supported by CETSA of p300 HAT in HEK293T cells (+[…] °C)
# Type: biochemical
smiles,measurement,value
CC(Cc1ccc(O)c(O)c1)C(C)Cc1ccc(O)c(O)c1 (stereo not shown) [nordihydroguaiaretic acid],IC50,10.3 µM
